Assay results: ChEMBL document CHEMBL4842376, “Design, synthesis and biological evaluation of novel hybrids targeting mTOR and HDACs for potential treatment of hepatocellular carcinoma” (Eur J Med Chem, 2021)
Activity calls are given as the source filed them. No cut-off for these calls is given here.

Tests used:
HCT-116 = assay: cells; type: functional, cell-based; conditions: Homo sapiens, HCT-116, 72 h
Description: Antiproliferative activity against human HCT-116 cells assessed as inhibition of cell growth measured after 72 hrs by MTT assay

HeLa = assay: cells; type: functional, cell-based; conditions: Homo sapiens, 72 h
Description: Antiproliferative activity against human HeLa cells assessed as inhibition of cell growth measured after 72 hrs by MTT assay

A549 = assay: cells; type: functional, cell-based; conditions: Homo sapiens, A549, 72 h
Description: Antiproliferative activity against human A549 cells assessed as inhibition of cell growth measured after 72 hrs by MTT assay

Huh-7 = assay: cells; type: functional, cell-based; conditions: Homo sapiens, Huh-7, 72 h
Description: Antiproliferative activity against human Huh-7 cells assessed as inhibition of cell growth measured after 72 hrs by MTT assay

Bel-7402 = assay: Antiproliferative activity against human Bel-7402 cells assessed as inhibition of cell growth measured after 72 hrs by MTT assay; type: functional, cell-based; conditions: Bel-7402, 72 h
PLC-PRF-5 = assay: Antiproliferative activity against human PLC-PRF-5 cells assessed as inhibition of cell growth measured after 72 hrs by MTT assay; type: functional, cell-based; conditions: PLC-PRF-5, 72 h
[1] = biological target: Serine/threonine-protein kinase mTOR (Homo sapiens, UniProt P42345); assay: Inhibition of mTOR (unknown origin) at 1 uM using U-Light-4E-BP1 peptide as a substrate in the presence of ATP incubated for 30 mins by Lance ultra assay relative to control
Histone deacetylase 3 = Histone deacetylase 3 (Homo sapiens, UniProt O15379); assay: Inhibition of HDAC3 (unknown origin) using Ac-peptide as a substrate pretreated for 15 mins followed by substrate addition
Sequence of Histone deacetylase 3 (O15379 whole entry): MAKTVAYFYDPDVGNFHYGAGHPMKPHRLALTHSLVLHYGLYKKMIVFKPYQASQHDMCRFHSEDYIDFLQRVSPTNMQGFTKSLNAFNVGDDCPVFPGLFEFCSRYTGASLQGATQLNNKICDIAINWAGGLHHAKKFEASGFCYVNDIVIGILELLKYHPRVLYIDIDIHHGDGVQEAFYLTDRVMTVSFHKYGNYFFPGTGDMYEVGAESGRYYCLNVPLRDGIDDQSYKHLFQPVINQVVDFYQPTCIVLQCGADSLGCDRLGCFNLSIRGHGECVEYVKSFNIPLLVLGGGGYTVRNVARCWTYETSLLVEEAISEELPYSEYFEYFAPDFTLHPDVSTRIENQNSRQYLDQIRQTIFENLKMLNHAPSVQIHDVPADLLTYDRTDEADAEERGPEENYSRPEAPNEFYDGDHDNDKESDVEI

Histone deacetylase 8 = biological target: T1, Histone deacetylase 8 (Homo sapiens, UniProt Q9BY41); assay: Inhibition of HDAC8 (unknown origin) using Ac-peptide as a substrate pretreated for 15 mins followed by substrate addition
T1 sequence (Q9BY41 whole entry): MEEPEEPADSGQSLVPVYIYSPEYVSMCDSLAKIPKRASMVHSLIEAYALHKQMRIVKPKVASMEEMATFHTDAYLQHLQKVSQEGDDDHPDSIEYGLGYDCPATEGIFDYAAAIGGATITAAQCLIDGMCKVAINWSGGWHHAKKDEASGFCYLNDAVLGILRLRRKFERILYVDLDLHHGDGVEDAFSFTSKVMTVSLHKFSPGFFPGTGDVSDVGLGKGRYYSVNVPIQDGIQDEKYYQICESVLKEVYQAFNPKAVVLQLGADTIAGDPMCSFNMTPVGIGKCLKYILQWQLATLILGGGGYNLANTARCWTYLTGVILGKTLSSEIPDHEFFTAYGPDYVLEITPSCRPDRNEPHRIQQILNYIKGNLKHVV

[2] = biological target: T2, Protein deacetylase HDAC6 (Homo sapiens, UniProt Q9UBN7); assay: Inhibition of HDAC6 (unknown origin) using Ac-peptide as a substrate pretreated for 15 mins followed by substrate addition
T2 sequence (Q9UBN7 whole entry): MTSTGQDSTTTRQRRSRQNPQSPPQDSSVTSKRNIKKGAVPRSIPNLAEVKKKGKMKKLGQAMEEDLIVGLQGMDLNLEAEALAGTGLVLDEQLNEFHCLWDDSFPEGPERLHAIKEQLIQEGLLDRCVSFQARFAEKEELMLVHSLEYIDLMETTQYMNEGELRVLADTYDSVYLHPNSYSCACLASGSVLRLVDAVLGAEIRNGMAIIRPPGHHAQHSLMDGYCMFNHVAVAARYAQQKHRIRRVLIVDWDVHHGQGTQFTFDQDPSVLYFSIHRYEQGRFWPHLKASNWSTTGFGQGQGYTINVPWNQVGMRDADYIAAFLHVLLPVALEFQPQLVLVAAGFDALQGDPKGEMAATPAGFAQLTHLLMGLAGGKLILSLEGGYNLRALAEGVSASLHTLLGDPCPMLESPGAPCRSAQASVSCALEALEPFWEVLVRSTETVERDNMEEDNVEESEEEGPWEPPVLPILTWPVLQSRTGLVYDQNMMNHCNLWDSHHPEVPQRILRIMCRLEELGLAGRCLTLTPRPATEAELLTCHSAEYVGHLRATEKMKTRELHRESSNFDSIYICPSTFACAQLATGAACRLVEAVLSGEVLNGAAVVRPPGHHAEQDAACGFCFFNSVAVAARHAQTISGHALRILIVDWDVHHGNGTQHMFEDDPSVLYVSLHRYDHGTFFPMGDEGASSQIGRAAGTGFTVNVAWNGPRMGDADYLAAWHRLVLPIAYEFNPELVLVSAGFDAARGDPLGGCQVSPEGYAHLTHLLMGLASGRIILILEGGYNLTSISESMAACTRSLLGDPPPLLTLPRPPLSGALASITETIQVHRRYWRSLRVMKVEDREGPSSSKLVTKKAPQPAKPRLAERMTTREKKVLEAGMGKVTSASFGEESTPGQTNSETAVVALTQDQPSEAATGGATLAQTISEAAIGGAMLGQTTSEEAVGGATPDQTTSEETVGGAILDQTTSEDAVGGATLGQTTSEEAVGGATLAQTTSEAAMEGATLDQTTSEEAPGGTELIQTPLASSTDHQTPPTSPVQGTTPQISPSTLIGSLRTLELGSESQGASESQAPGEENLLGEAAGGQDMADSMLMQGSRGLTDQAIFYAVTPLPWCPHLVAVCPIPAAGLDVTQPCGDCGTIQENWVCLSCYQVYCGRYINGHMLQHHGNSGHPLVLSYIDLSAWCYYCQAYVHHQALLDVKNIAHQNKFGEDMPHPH

[3] = biological target: Histone deacetylase (Homo sapiens) (UniProt Q13547+O15379+Q9UBN7+Q92769+Q9UQL6+Q8WUI4+Q9BY41+Q96DB2+P56524+Q9UKV0+Q969S8); assay: Inhibition of HDAC in human HepG2 cells assessed as upregulation of alpha-tubulin acetylation at 6 uM measured after 24 hrs by western blot analysis; type: cell-based
HepG2 [4] = assay: Induction of cell cycle arrest in human HepG2 cells assessed as accumulation of cells in S phase at 3 uM measured after 24 hrs by propidium iodide staining based flow cytometry analysis (reference value: 17 to 26.4%); type: functional
HepG2 [5] = assay: Induction of cell cycle arrest in human HepG2 cells assessed as accumulation of cells in G2/M phase at 6 uM measured after 24 hrs by propidium iodide staining based flow cytometry analysis (Rvb= 17.8 to 18.5%); type: functional
HepG2 [6] = assay: Induction of apoptosis in human HepG2 cells assessed as live cells at 2.5 uM measured after 24 hrs by Annexin V-FITC/PI staining based flow cytometry analysis (Rvb= 84.6%); type: functional
HepG2 [7] = assay: Induction of apoptosis in human HepG2 cells assessed as late apoptotic cells at 5 uM measured after 24 hrs by Annexin V-FITC/PI staining based flow cytometry analysis (Rvb= […]); type: functional
HepG2 [8] = assay: Induction of apoptosis in human HepG2 cells assessed as necrotic cells at 5 uM measured after 24 hrs by Annexin V-FITC/PI staining based flow cytometry analysis (Rvb= 0.082%); type: functional
HepG2 [9] = assay: Induction of apoptosis in human HepG2 cells assessed as late apoptotic cells at 10 uM measured after 24 hrs by Annexin V-FITC/PI staining based flow cytometry analysis (Rvb= […]); type: functional
HepG2 [10] = assay: Antimigratory activity in human HepG2 cells assessed as reduction in wound closure measured after 24 to 48 hrs by scratch wound healing assay; type: functional, cell-based; conditions: dose 1.5-6 µM, time 24-48 hrs

SMILES: Nc1ncnc2c1c(-c1cnc3[nH]ccc3c1)nn2CCCCCCCCC(=O)NO
- IC50 (HCT-116): 5.46 µM
- IC50 (HeLa): 7.47 µM
- IC50 (A549): 12.2 µM
- IC50 (Huh-7): 7.38 µM
- IC50 (Bel-7402): 18.9 µM
- IC50 (PLC-PRF-5): 14.9 µM
- inhibition [1]: 97.7%
- IC50 (Histone deacetylase 3): 0.034 µM
- IC50 (Histone deacetylase 8): 0.733 µM
- IC50 [2]: 0.00954 µM
- inhibition [3]: Active
- Activity (HepG2 [4]): 16.2%
- Activity (HepG2 [5]): 23.5%
- Activity (HepG2 [6]): 69.7%
- Activity (HepG2 [7]): 10.4%
- Activity (HepG2 [8]): 0.15%
- Activity (HepG2 [9]): 17.8%
- Activity (HepG2 [10]): Dose-Dependent Effect

SMILES: Nc1nc2cc(-c3nn(CCCCCCC(=O)NO)c4ncnc(N)c34)ccc2o1
- IC50 (HCT-116): 5.39 µM
- IC50 (HeLa): 6.41 µM
- IC50 (A549): 33 µM
- IC50 (Huh-7): 5.71 µM
- IC50 (Bel-7402): > 50 µM
- IC50 (PLC-PRF-5): > 50 µM
- inhibition [1]: 99%
- IC50 (Histone deacetylase 3): 0.0046 µM
- IC50 (Histone deacetylase 8): 0.231 µM
- IC50 [2]: 0.0103 µM
- inhibition [3]: Active
- Activity (HepG2 [4]): 15.2%
- Activity (HepG2 [5]): 15.7%
- Activity (HepG2 [6]): 63.7%
- Activity (HepG2 [7]): 14.5%
- Activity (HepG2 [8]): 0.59%
- Activity (HepG2 [9]): 27.2%
- Activity (HepG2 [10]): Dose-Dependent Effect
